Data taken from publication PMC10545732, “Structure-based drug discovery of a corticotropin-releasing hormone receptor 1 antagonist using an X-ray free-electron laser” (Experimental & Molecular Medicine, 2023).

Columns and labels:
CRF1R = target: T1, CRF1R (Homo sapiens, UniProt P34998); assay: Calcium mobilization assay (hCRF1R Ca2+ antagonism); assay type: cell-based; details: for IC50: HEK-Gα15 cells transfected with CRF1R, urocortin 2 nM, n = 3
T1 construct: HEK-Gα15 cells (Eurofins Scientific) transfected with CRF1R; host or cells: HEK-Gα15 cells
T1 sequence (P34998 24-415): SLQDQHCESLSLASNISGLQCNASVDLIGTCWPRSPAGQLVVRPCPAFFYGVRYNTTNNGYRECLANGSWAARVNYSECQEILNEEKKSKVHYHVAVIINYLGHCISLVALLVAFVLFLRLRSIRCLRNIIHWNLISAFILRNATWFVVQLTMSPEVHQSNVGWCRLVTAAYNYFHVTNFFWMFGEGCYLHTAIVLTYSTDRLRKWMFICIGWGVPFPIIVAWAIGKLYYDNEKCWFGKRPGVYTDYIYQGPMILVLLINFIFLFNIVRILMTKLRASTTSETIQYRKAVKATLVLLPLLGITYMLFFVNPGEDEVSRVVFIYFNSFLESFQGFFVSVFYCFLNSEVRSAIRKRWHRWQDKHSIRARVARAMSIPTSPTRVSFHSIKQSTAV
Experimental: HEK-Gα15 cells (Eurofins Scientific) transfected with CRF1R were plated in 96-well plates at a density of 50,000 cells/100 μL per well and incubated overnight. The next day, the cells were incubated with a Calcium 6 reagent (Molecular Devices) containing 0.5 mM probenecid (Sigma) at 37 °C for 1 h before adding compounds or dimethyl sulfoxide DMSO (positive and negative control; final concentration 0.1%). After incubation at 37 °C for 1 h, 50 μL urocortin (final concentration 2 nM) (Tocris) was dispensed into the well with FLIPR-tetra (Molecular Devices). […] Intracellular calcium changes were recorded at excitation and emission wavelengths of 470–495 and 515–575 nm, respectively. Relative fluorescence units (RFU) were calculated as the fluorescence signal maximum minus the signal minimum for 30 s after addition. The graphs and IC50 concentrations were calculated using GraphPad Prism 6 software.

CYP1A2 = target: T2, CYP1A2 (Homo sapiens, UniProt P05177); assay: CYP inhibition assay CYP1A2 (phenacetin O-demethylase); assay type: in vitro ADME; details: 10 μM, human liver microsomes, n = 3
T2 construct: 0.25 mg/mL human liver microsomes; from tissue; host or cells: human liver microsomes
T2 sequence (P05177 1-516): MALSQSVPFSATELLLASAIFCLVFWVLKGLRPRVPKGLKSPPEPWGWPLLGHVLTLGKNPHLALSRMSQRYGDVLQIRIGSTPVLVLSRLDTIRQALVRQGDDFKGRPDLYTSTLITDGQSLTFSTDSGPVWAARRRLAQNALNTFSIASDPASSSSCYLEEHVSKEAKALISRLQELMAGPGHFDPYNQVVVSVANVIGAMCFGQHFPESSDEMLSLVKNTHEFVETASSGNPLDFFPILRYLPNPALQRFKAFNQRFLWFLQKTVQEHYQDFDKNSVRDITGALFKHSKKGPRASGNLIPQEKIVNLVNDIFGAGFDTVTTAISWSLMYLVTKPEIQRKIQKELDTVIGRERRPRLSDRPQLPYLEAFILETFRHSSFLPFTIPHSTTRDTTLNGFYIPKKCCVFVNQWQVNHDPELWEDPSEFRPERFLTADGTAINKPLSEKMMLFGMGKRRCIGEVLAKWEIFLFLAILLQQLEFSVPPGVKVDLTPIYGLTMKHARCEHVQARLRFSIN
Experimental: (§1) Phenacetin O-demethylase, diclofenac 4-hydroxylase, S-mephenytoin 4-hydroxylase, dextromethorphan O-demethylase, and midazolam 1’-hydroxylase activities were determined as probe activities for CYP1A2, CYP2C9, CYP2C19, CYP2D6, and CYP3A4, respectively, using cocktail incubation. […] The cocktail incubation mixtures consisted of 0.25 mg/mL human liver microsomes, 0.1 M phosphate buffer (pH 7.4), an NADPH regeneration system, and inhibitors (CRF1R antagonist compounds, 10 µM) in a total volume of 100 μL. The final volume of the organic solvents in the incubation mixture was 1% (v/v). […] All incubations were performed in triplicate, and the mean values were used for analysis. The samples were then centrifuged at 15,000 rpm for 5 min at 4 °C. […] The CYP-mediated activities in the presence of inhibitors were expressed as percentages of the corresponding control values.

CYP2C9 = target: T3, CYP2C9 (Homo sapiens, UniProt P11712); assay: CYP inhibition assay CYP2C9 (diclofenac 4-hydroxylase); assay type: in vitro ADME; details: 10 μM, human liver microsomes, n = 3
T3 construct: 0.25 mg/mL human liver microsomes; from tissue; host or cells: human liver microsomes
T3 sequence (P11712 whole entry): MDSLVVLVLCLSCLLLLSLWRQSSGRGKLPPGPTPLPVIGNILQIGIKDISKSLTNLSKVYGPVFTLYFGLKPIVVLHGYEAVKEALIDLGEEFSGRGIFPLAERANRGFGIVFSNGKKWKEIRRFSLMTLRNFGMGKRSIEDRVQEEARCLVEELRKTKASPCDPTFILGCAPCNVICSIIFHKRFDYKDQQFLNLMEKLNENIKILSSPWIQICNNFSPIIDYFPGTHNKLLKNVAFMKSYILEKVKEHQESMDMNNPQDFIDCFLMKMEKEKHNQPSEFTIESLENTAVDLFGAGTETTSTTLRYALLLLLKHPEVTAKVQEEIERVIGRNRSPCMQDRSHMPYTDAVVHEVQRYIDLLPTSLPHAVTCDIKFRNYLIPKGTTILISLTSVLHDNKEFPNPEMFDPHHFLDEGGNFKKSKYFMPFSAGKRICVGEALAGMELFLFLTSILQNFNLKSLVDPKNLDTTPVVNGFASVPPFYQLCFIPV
Experimental: as §1

CYP2C19 = target: T4, CYP2C19 (Homo sapiens, UniProt P33261); assay: CYP inhibition assay CYP2C19 (S-mephenytoin 4-hydroxylase); assay type: in vitro ADME; details: 10 μM, human liver microsomes, n = 3
T4 construct: 0.25 mg/mL human liver microsomes; from tissue; host or cells: human liver microsomes
T4 sequence (P33261 whole entry): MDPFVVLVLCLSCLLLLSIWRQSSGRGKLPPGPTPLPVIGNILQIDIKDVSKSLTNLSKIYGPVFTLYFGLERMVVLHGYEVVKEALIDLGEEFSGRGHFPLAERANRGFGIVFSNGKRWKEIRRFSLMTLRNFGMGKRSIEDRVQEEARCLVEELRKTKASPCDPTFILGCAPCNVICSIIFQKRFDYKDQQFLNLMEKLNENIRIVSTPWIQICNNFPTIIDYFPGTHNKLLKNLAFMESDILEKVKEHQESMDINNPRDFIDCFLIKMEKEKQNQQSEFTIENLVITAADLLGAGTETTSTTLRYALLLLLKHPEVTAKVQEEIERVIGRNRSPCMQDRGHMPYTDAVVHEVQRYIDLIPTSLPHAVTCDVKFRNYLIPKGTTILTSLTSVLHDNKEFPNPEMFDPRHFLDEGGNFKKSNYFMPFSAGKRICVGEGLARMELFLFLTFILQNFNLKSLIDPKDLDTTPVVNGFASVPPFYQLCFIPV
Experimental: as §1

[1] = In vitro BBB permeability assay; assay type: in vitro ADME, human; details: human; 10 μM apical, 12-h incubation, hCMEC/D3 monolayer; read-out: permeability coefficient
Experimental: Human cerebral microvascular endothelial cells (hCMECs/D3, SCC066; Sigma-Aldrich) were used to assess the permeability of CRF1R antagonists across the BBB. hCMECs were seeded on Falcon^TM cell culture inserts (08-770, Fisher Scientific) with 0.4 μm pore sizes precoated with collagen type I from rat tails (354236, Corning) at a density of 50,000 cells/mL in endothelial cell growth medium-2 (EGM-2, CC-3162; Lonza). The medium was changed with EGM-2 every three to four days for proliferation and with EGM-2 containing 2.5% human serum (SLBX6020, Sigma-Aldrich) for differentiation. Cell culture inserts were transferred into 24-well plates containing 700 μL of EGM-2 in each well (basolateral compartment) for the permeability assay. The medium in the inserts (apical compartment) was then replaced with 300 μL EGM-2 containing 10 μM BMK-C203 or BMK-C205. Apical and basolateral compartments were collected after a 12-h incubation at 37 °C, and drug concentrations were measured using HPLC. For sample preparation, 50 μL of the sample was mixed with 10 μL of an internal standard solution (d4-cortisol). Subsequently, 50 μL of acetonitrile was added, and the mixture was centrifuged at 16,000×g for 10 min for protein precipitation. The supernatants were used for LC‒MS analysis with a triple quadrupole mass spectrometer coupled with HPLC using a C18 reversed-phase column. The concentration of the antagonists was determined using a calibration curve. The permeability coefficient (P) was calculated according to Pardridge et al.[34]. The permeability-surface area product (PS, in cm^3/s) was divided by the filter surface area A (in cm^2) using Eq. (1) as follows:1 Pcm/s=Vd×△Ma/A×[…]×△t where Vd is the volume in the donor compartment in cm^3, ΔMa is the total amount of the compound in the […] compartment after t seconds, Md is the donor amount, Δt is the incubation time, and A is the filter area in cm^2.

CYP3A4 = CYP3A4 (Homo sapiens, UniProt P08684); assay: CYP inhibition assay CYP3A4 (midazolam 1'-hydroxylase); details: 10 μM, human liver microsomes, n = 3
CYP3A4, sequence (P08684 whole entry): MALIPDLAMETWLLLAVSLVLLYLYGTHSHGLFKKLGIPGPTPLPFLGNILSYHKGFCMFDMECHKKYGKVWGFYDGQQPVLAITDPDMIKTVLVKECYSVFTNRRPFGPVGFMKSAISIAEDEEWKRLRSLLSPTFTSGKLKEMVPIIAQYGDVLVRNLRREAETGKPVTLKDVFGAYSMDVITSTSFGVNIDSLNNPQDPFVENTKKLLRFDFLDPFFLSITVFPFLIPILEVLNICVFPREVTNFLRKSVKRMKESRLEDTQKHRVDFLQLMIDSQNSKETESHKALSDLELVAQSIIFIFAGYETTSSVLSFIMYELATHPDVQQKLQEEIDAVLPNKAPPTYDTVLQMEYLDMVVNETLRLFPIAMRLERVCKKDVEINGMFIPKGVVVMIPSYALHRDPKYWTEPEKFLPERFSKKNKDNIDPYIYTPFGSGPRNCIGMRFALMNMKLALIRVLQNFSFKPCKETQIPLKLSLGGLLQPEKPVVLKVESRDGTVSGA
Experimental: as §1

In the case of `COc1cc(Br)cc(OC)c1-c1c(C)nn2c(N(CCCC(F)(F)F)CCCC(F)(F)F)nc(C)nc12` [BMK-C203], the IC50 (CRF1R) is reported as 280 nM, the “CYP1A2, percentage of control activity” value (CYP1A2) is reported as 95.6 ± 2.9 percentage of control activity and the “CYP2C9, percentage of control activity” value (CYP2C9) is reported as 94.9 ± 1.9 percentage of control activity. The “CYP2C19, percentage of control activity” value (CYP2C19) was 83.2 ± 0.5 percentage of control activity, the Papp at 12 h, 10 µM [1] was 0.0296 ×10⁻⁶ cm/s and the “CYP3A4, percentage of control activity” value (CYP3A4) was 90.5 ± 2.9 percentage of control activity.

In the case of `CCCCN(CC1CC1)c1nc(C)nc2c(-c3c(OC)cc(Br)cc3OC)c(C)nn12` [BMK-C205], the IC50 (CRF1R) is reported as 74 nM, the “IC50 relative to BMK-C203” value (CRF1R; hCRF1R Ca2+ antagonism assay) is reported as “fourfold lower” and the “CYP1A2, percentage of control activity” value (CYP1A2) is reported as > 100 ± 4.2 percentage of control activity. The “CYP2C9, percentage of control activity” value (CYP2C9) was 89.8 ± 2.4 percentage of control activity, the “CYP2C19, percentage of control activity” value (CYP2C19) was 89.7 ± 3.8 percentage of control activity and the Papp at 12 h, 10 µM [1] was 0.211 ×10⁻⁶ cm/s. The “CYP3A4, percentage of control activity” value (CYP3A4) was > 100 ± 6.2 percentage of control activity.
